# Data reported in BindingDB's records for doi:10.7270/Q2TX3CTT (Broad Institute, 2010).
# Target: Glycogen synthase kinase-3 beta (Homo sapiens, UniProt P49841)
# Test: GSK3beta kinase inhibitor potency, dose response, biochemical, luminescence, cell-free homogeneous, retest (AID 434954)
# Sequence of Glycogen synthase kinase-3 beta (P49841 whole entry): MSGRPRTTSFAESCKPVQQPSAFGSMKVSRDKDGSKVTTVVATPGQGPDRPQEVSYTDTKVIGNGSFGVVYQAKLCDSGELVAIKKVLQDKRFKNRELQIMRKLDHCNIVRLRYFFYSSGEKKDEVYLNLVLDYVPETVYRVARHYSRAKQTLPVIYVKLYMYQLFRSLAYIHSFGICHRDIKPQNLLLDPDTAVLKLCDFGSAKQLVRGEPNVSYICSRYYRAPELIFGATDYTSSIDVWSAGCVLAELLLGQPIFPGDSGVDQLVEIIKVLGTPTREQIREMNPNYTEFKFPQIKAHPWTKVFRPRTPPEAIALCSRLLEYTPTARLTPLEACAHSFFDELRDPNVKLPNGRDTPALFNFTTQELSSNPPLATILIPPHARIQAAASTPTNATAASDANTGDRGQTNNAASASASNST
row,Compound,EC50
1,"c1ccc(CNCC2COc3ccccc3O2)cc1 (configuration not stated) [Benzyl-(2,3-dihydro-benzo[1,4]dioxin-2-ylmethyl)-amine]",> 300 µM
2,"Cn1nc(-c2ccc(Cl)cc2)nc2c(=O)n(C)c(=O)nc1-2 [3-(4-Chloro-phenyl)-1,6-dimethyl-1H-pyrimido[5,4-e][1,2,4]triazine-5,7-dione]",24 µM
3,O=C(CSCCc1ccccn1)Nc1ccc(Br)cn1,17.7 µM
4,"CCSc1nnc(-c2ccncc2)o1 [4-(5-Ethylsulfanyl-[1,3,4]oxadiazol-2-yl)-pyridine]",> 300 µM
5,CCOc1ccc(-c2csc3[n+]2CC[N-]3)cc1[N+](=O)[O-],> 300 µM
6,O=C(NN=Cc1cccnc1)c1cc(-c2ccccc2)nc2c(Cl)cccc12 [MLS001230128],> 300 µM
7,COc1cc(C=Nn2c(C3CCCCC3)n[nH]c2=S)cc(Br)c1O [MLS001164684],4.17 µM
8,"CC(CC(=O)N1CCN(c2cccc(Cl)c2)CC1)S(=O)(=O)c1ccc2c(c1)NC(=O)CO2 (configuration not stated) [6-[4-[4-(3-chlorophenyl)piperazin-1-yl]-4-oxobutan-2-yl]sulfonyl-4H-1,4-benzoxazin-3-one]",> 300 µM
9,Oc1cc(SC(=Nc2ccccc2)Nc2ccccc2)c(O)n1-c1cccc2ccccc12 [MLS000558765],> 300 µM
10,O=c1cccc2oc(-c3ccccc3Cl)cc(O)c1-2 [2-(2-chlorophenyl)-5-hydroxy-1-benzopyran-4-one],> 300 µM
11,CN1C(=Cc2ccc(F)cc2)C(=O)N=C1N [(5Z)-2-azanyl-5-[(4-fluorophenyl)methylidene]-1-methyl-imidazol-4-one],> 300 µM
12,"CCOc1ccc2nc(N3CCC(C(=O)N4CCN(C5CCCCC5)CC4)CC3)sc2c1 [(4-cyclohexyl-1-piperazinyl)-[1-(6-ethoxy-1,3-benzothiazol-2-yl)-4-piperidinyl]methanone]",> 300 µM
13,CCn1nc(NC(=O)Cc2ccc(OC)cc2)c2cc3cc(C)ccc3nc21,> 300 µM
14,O=C(/[O+]=N/[CH-]c1ccc(N2CCCCC2)c([N+](=O)[O-])c1)c1ccc(Cl)cc1Cl [MLS000326612],> 300 µM
15,"O=C(CCc1ccccc1)Nc1ccc2c(c1)OCCO2 [N-(2,3-dihydro-1,4-benzodioxin-6-yl)-3-phenyl-propanamide]",> 300 µM
16,COc1ccc(CNC(=O)CN(Cc2ccc(OC)cc2)C(=O)CCC(=O)Nc2nccs2)cc1 [MLS001222948],19.1 µM
17,"Cc1ccc(Nc2nc(NCCCN3CCOCC3)nc(N)c2[N+](=O)[O-])cc1 [N4-(4-methylphenyl)-N2-(3-morpholin-4-ylpropyl)-5-nitro-pyrimidine-2,4,6-triamine]",> 300 µM
18,Cc1onc(-c2ccccc2Cl)c1C(=O)NNC(=O)c1ccc(F)cc1 [MLS001223650],> 300 µM

row,Compound,EC50
1,"COc1ccc2c(CC(=O)Nc3ncc(C)s3)coc2c1 [2-(6-methoxy-1-benzofuran-3-yl)-N-(5-methyl-1,3-thiazol-2-yl)ethanamide]",> 300 µM
2,CC(=O)c1coc2ccc(OCC(=O)O)cc12 [2-[(3-acetyl-5-benzofuranyl)oxy]acetic acid],56.6 µM
3,CN(c1ccccc1C(=O)Nc1cccc(C(F)(F)F)c1)S(C)(=O)=O [MLS000096933],> 300 µM
4,Cc1ccnc(NC(=O)c2ccc([N+](=O)[O-])o2)c1 [5-nitro-N-(4-methyl-2-pyridinyl)-2-furamide],> 300 µM
5,O=c1[nH]c(N=NCc2ccccc2)nc2ccccc12 [MLS000571403],> 300 µM
6,"O=C(Nc1ncnc2sc3c(c12)CCCC3)c1ccncc1 [N-(5,6,7,8-tetrahydro-[1]benzothiolo[2,3-d]pyrimidin-4-yl)-4-pyridinecarboxamide]",42.4 µM
7,COc1ccc(-c2nn(-c3ccccc3)cc2N)cc1 [3-(4-methoxyphenyl)-1-phenylpyrazol-4-amine],> 300 µM
8,C=CCN=C(NC#N)SCC(=O)NC(C)(C)C [MLS000078466],> 300 µM
9,"CCN(CC)Cc1c(C(=O)NN=Cc2ccco2)nnn1-c1nonc1N [1-(4-amino-1,2,5-oxadiazol-3-yl)-5-(diethylaminomethyl)-N-(2-furanylmethylideneamino)-4-triazolecarboxamide]",119 µM
10,Cc1occc1C(=O)N1CCN(C(=O)C2CCCO2)CC1 (configuration not stated) [1-(2-methyl-3-furoyl)-4-(tetrahydro-2-furanylcarbonyl)piperazine],> 300 µM
11,"O=C(c1noc2c1CCc1ccccc1-2)N1CCOCC1 [3-(morpholin-4-ylcarbonyl)-4,5-dihydronaphtho[2,1-d]isoxazole]",> 300 µM
12,Cc1ccc(NC(=O)CSc2nccn2C)cc1F [N-(3-fluoro-4-methylphenyl)-2-[(1-methyl-2-imidazolyl)thio]acetamide],> 300 µM
13,"Cc1coc2cc3oc(=O)c(CCC(=O)NCCCN4CCCC4=O)c(C)c3cc12 [3-(3,5-dimethyl-7-oxo-6-furo[3,2-g][1]benzopyranyl)-N-[3-(2-oxo-1-pyrrolidinyl)propyl]propanamide]",> 300 µM
14,COc1ccccc1C(=O)Oc1ccc(C(C)(C)C)cc1,> 300 µM
15,"CC(C)Nc1nc(N)c(C(=O)C23CC4CC(CC(C4)C2)C3)s1 [1-adamantyl-[4-azanyl-2-(propan-2-ylamino)-1,3-thiazol-5-yl]methanone]",23.5 µM
16,"CCCn1nc(NC(=O)C2CCCO2)c2cc3cccc(C)c3nc21 (configuration not stated) [N-(8-methyl-1-propylpyrazolo[3,4-b]quinolin-3-yl)oxolane-2-carboxamide]",> 300 µM
17,CC1(C)CC(=O)C(C2(O)C(=O)Nc3ccccc32)CO1 (configuration not stated) [MLS000689086],> 300 µM
18,O=[N+]([O-])c1cc([N+](=O)[O-])c(N2CCCCCC2)cc1NCCO,5.63 µM

# Now from value to molecule:
row,EC50,Compound
1,> 300 µM,Cc1cc(OCCCn2ccnc2)ccc1[N+](=O)[O-] [SMR000497363]
2,> 300 µM,Cc1ccc(S(=O)(=O)N(C)C)cc1NC(=O)c1ccc(OC(F)(F)F)cc1 [SMR000247294]
3,> 300 µM,CCOc1cc(C2c3c(n[nH]c3C)C(=O)N2c2ccc(Br)cc2)ccc1O (configuration not stated) [SMR000059772]
4,3.04 µM,O=C1N=C(NCc2ccccc2)SC1=Cc1ccc(O)cc1 [SMR000217101]
5,6.85 µM,O=C(c1ccccc1)c1ccc(NCCCn2ccnc2)c([N+](=O)[O-])c1 [SMR000588423]
6,14 µM,Nc1ncnc(N2CCc3ccccc32)c1[N+](=O)[O-] [SMR000323059]
7,> 300 µM,N#Cc1c(-c2ccccc2)nc(-c2ccccc2)[nH]c1=O [SMR000168447]
8,> 300 µM,COc1cccc(NC(=O)NNS(=O)(=O)c2ccc(OC)cc2OC)c1 [SMR000679286]
9,> 300 µM,Nc1nc(NCC2CCCO2)nc(Nc2cccc(Cl)c2)c1[N+](=O)[O-] (configuration not stated) [SMR000434547]
10,> 300 µM,O=C(NCC(c1ccco1)N1CCOCC1)c1cccc(Cl)c1 (configuration not stated) [SMR000808258]
11,24.1 µM,O=c1[nH]nc(SCCS(=O)(=O)c2ccc(F)cc2)n1-c1ccc2c(c1)OCCO2 [SMR000456167]
12,> 300 µM,Cc1ccc(SCc2c(C(=O)NN=Cc3ccoc3)nnn2-c2nonc2N)cc1 [SMR000647588]
13,> 300 µM,O=C(O)c1ccccc1NCc1cccnc1 [SMR000473304]
14,> 300 µM,Cc1ccc2cc3c(NC(=O)C4CCCO4)nn(CC(C)C)c3nc2c1 (configuration not stated) [SMR000148634]
15,> 300 µM,CC1=C(C(=O)OCC2CCCO2)C(c2ccsc2)C2C(=O)CC(C)(C)CC2=N1 (configuration not stated) [SMR000279706]
16,8.4 µM,COc1ccc(CC(=O)Nc2ncc([N+](=O)[O-])s2)cc1OC [SMR000288398]
